One may read the ΔTm as the shift of the melting midpoint relative to a reference.

These results are taken from PMC6006475 (2016).

In assay [1] the test system is ds DNA (DNA, hairpin, HEG (hexaethylene glycol) linker between 10 and 11) TATAGCTATATATAGCTATA
Put plainly: FRET melting. The note with it: 1 µM BTC, highest tested.

Assay [2] has as its system c-MYC-(D) (DNA, G4) TGAGGGTGGGTAGGGTGGGTAA
Put plainly: 1H NMR titration (imino region). The note with it: 25 mM Tris-HCl, pH 7.4, 298 K, 100 µM DNA, binds minor conformation.

Assay [3] has as its system h-TELO-(D) (DNA, G4) GGGTTAGGGTTAGGGTTAGGG
Description: 1H NMR titration (imino region). As to conditions: 25 mM Tris-HCl, pH 7.4, 298 K, 100 µM DNA.

Assay [4] concerns h-TELO-(A) (DNA, G4) GGGTTAGGGTTAGGGTTAGGG
Put plainly: FRET melting. As to conditions: 0.4 µM BTC, SD ±5%.

For assay [5], the system named is c-MYC-(A) (DNA, G4) TGAGGGTGGGTAGGGTGGGTAA
Put plainly: FRET melting. The note with it: 0.2 µM BTC, SD ±5%.

Setting [6] is: none (K+-free, MQ water), pH ~7.
The mark [7] stands for this setting: K+ (50 mM potassium cacodylate), pH 7.4, pre-annealed.

Consider `CN(C)CCCNC(=O)c1ccc(-n2cc(-c3ccc4[nH]c5ccc(-c6cn(-c7ccc(C(=O)NCCCN(C)C)cc7)nn6)cc5c4c3)nn2)cc1`, for which the thermal shift (ΔTm) in assay [1] (K+ (50 mM potassium cacodylate), pH 7.4) came to 3 °C; in assay [1] (setting [6]), 2.9 °C; in assay [4] (setting [7]), 38.7 °C; in assay [4] (setting [6]) it was 38.5 °C; in assay [5] (setting [7]), 24.0 °C; in assay [5] (setting [6]) it was 23.5 °C. Further, the binding entry is “yes” in assay [2] (K+ (100 mM KCl)); “yes” in assay [2] (none (K+-free)); “yes” in assay [3] (K+ (100 mM KCl), weak shift perturbations); “yes” in assay [3] (none (K+-free), partial folding promoted).
